Key:
[1] = system: S. aureus R 85,Em^R; assay: MIC of swalpamycin, agar plate test; type: cell-based, Staphylococcus aureus; conditions: S. aureus R 85,Em^R (Em = erythromycin)
Source text: (§1) The minimum inhibitory concentration (MIC) of swalpamycin has been determined for various microorganisms. The results are to be found in Table I which follows:
(§2) *Mac = macrolide, Em = erythromycin, Meth = methicillin

[2] = system: S. aureus MLS 16,Em^R; assay: MIC of swalpamycin, agar plate test; type: cell-based, Staphylococcus aureus; conditions: S. aureus MLS 16,Em^R (Em = erythromycin)
Source text: as §1, §2

[3] = system: S. aureus 789 Meth.^R; assay: MIC of swalpamycin, agar plate test; type: cell-based, Staphylococcus aureus; conditions: S. aureus 789 Meth.^R (Meth = methicillin)
Source text: as §1, §2

[4] = system: S. aureus MLS 14,Em^R; assay: MIC of swalpamycin, agar plate test; type: cell-based, Staphylococcus aureus; conditions: S. aureus MLS 14,Em^R (Em = erythromycin)
Source text: as §1, §2

[5] = system: S. aureus 3066 Meth.^R; assay: MIC of swalpamycin, agar plate test; type: cell-based, Staphylococcus aureus; conditions: S. aureus 3066 Meth.^R (Meth = methicillin)
Source text: as §1, §2

[6] = system: S. aureus 20424 Mac^R; assay: MIC of swalpamycin, agar plate test; type: cell-based, Staphylococcus aureus; conditions: S. aureus 20424 Mac^R (Mac = macrolide)
Source text: as §1, §2

[7] = system: S. aureus R85/M, Em^R; assay: MIC of swalpamycin, agar plate test; type: cell-based, Staphylococcus aureus; conditions: Em^R (Em = erythromycin)
Source text: as §1, §2

[8] = system: S. aureus 712 Meth^R; assay: MIC of swalpamycin, agar plate test; type: cell-based, Staphylococcus aureus; conditions: S. aureus 712 Meth^R (Meth = methicillin)
Source text: as §1, §2

[9] = system: S. aureus MLS 11,Em^R; assay: MIC of swalpamycin, agar plate test; type: cell-based, Staphylococcus aureus; conditions: S. aureus MLS 11,Em^R (Em = erythromycin)
Source text: as §1, §2

[10] = system: mycoplasma; assay: antimycoplasma activity; type: cell-based
Source text: (§3) The minimum inhibitory concentration (MIC) of swalpamycin has been determined for various microorganisms.

[11] = system: Strept. faecalis UD 86; assay: MIC of swalpamycin, agar plate test; type: cell-based, Streptococcus faecalis
Source text: as §3

[12] = system: E. coli 9632; assay: MIC of swalpamycin, agar plate test; type: cell-based
Source text: as §3

[13] = system: Pr. vulgaris; assay: MIC of swalpamycin, agar plate test; type: cell-based
Source text: as §3

[14] = system: Candida albicans; assay: MIC of swalpamycin, agar plate test; type: cell-based
Source text: as §3

[15] = system: E. coli ESS 2231; assay: MIC of swalpamycin, agar plate test; type: cell-based
Source text: as §3

[16] = system: Ps. aeruginosa M 35; assay: MIC of swalpamycin, agar plate test; type: cell-based
Source text: as §3

[17] = system: Prov. stuartii; assay: MIC of swalpamycin, agar plate test; type: cell-based
Source text: as §3

[18] = system: Sarcina lutea; assay: MIC of swalpamycin, agar plate test; type: cell-based
Source text: as §3

[19] = system: Ent. cloacae; assay: MIC of swalpamycin, agar plate test; type: cell-based
Source text: as §3

[20] = system: Cit. freundii; assay: MIC of swalpamycin, agar plate test; type: cell-based
Source text: as §3

[21] = system: Micrococcus luteus; assay: MIC of swalpamycin, agar plate test; type: cell-based
Source text: as §3

[22] = system: Bacillus subtilis; assay: MIC of swalpamycin, agar plate test; type: cell-based
Source text: as §3

[23] = system: S. aureus 209P; assay: MIC of swalpamycin, agar plate test; type: cell-based, Staphylococcus aureus
Source text: as §3

[24] = system: Gram-positive bacteria, including erythromycin-resistant strains; assay: antibacterial activity; type: cell-based
Source text: as §3

[25] = system: Streptococcus faecalis; assay: laboratory agar plate tests, antimicrobial spectrum; type: cell-based; conditions: sensitive and resistant strains of Streptococcus faecalis
Source text: as §3

[26] = system: Mycoplasma pulmonis; assay: as above; type: cell-based; conditions: strains of Mycoplasma pulmonis
Source text: as §3

[27] = system: Sarcina lutea; assay: as above; type: cell-based; conditions: strains of Sarcina lutea
Source text: as §3

[28] = system: Mycoplasma gallinarum; assay: as above; type: cell-based; conditions: strains of Mycoplasma gallinarum
Source text: as §3

[29] = system: Micrococcus luteus; assay: as above; type: cell-based; conditions: strains of Micrococcus luteus
Source text: as §3

[30] = system: Streptococcus pyogenes; assay: as above; type: cell-based; conditions: strains of Streptococcus pyogenes
Source text: as §3

[31] = system: Staphylococcus aureus; assay: as above; type: cell-based; conditions: sensitive and resistant strains of Staphylococcus aureus
Source text: as §3

[32] = system: Bacillus subtilis; assay: as above; type: cell-based; conditions: strains of Bacillus subtilis
Source text: as §3

[33] = system: Strept. faecalis Eder:Mac^R; assay: MIC of swalpamycin, agar plate test; type: cell-based, Streptococcus faecalis; conditions: Strept. faecalis Eder:Mac^R (Mac = macrolide)
Source text: as §1, §2

[34] = solubility; type: physicochemical
Source text: Swalpamycin is a colorless amorphous powder which is soluble in methanol, ethanol, n-propanol, isopropanol, n-butanol, ethyl acetate, n-butyl acetate, acetone, ethyl methyl ketone, methyl isobutyl ketone, methylene chloride, chloroform, dimethylformamide and dimethyl sulfoxide.

COC1C(OCC2/C=C/C=C/C(=O)C(C)CC(C)C(OC3OC(C)CC4(OC(=O)OC4C)C3O)C(C)/C=C/C(=O)OC2C)OC(C)C(O)C1OC (stereo not drawn) [Swalpamycin, swalpamycin]
minimum inhibitory concentration (MIC) [1]: 12.5
minimum inhibitory concentration (MIC) [2]: 12.5
minimum inhibitory concentration (MIC) [3]: > 50
minimum inhibitory concentration (MIC) [4]: 25
minimum inhibitory concentration (MIC) [5]: 3.2
minimum inhibitory concentration (MIC) [6]: 50
minimum inhibitory concentration (MIC) [7]: > 50
minimum inhibitory concentration (MIC) [8]: 12.5
minimum inhibitory concentration (MIC) [9]: 25
activity [10]: active
minimum inhibitory concentration (MIC) [11]: > 50
minimum inhibitory concentration (MIC) [12]: > 50
minimum inhibitory concentration (MIC) [13]: > 50
minimum inhibitory concentration (MIC) [14]: > 50
minimum inhibitory concentration (MIC) [15]: > 50
minimum inhibitory concentration (MIC) [16]: > 50
minimum inhibitory concentration (MIC) [17]: > 50
minimum inhibitory concentration (MIC) [18]: 0.2
minimum inhibitory concentration (MIC) [19]: > 50
minimum inhibitory concentration (MIC) [20]: > 50
minimum inhibitory concentration (MIC) [21]: 1.6
minimum inhibitory concentration (MIC) [22]: 0.1
minimum inhibitory concentration (MIC) [23]: 6.3
activity [24]: active
antimicrobial activity in vitro [25]: acts in vitro against sensitive and resistant strains
antimicrobial activity in vitro [26]: acts in vitro
antimicrobial activity in vitro [27]: acts in vitro
antimicrobial activity in vitro [28]: acts in vitro
antimicrobial activity in vitro [29]: acts in vitro
antimicrobial activity in vitro [30]: acts in vitro
antimicrobial activity in vitro [31]: acts in vitro against sensitive and resistant strains
antimicrobial activity in vitro [32]: acts in vitro
minimum inhibitory concentration (MIC) [33]: > 50
solubility in hexane and petroleum ether ([34]; hexane, petroleum ether (40°-60°)): sparingly soluble or insoluble
solubility in organic solvents ([34]; methanol, ethanol, n-propanol, isopropanol, n-butanol, ethyl acetate, n-butyl acetate, acetone, ethyl methyl ketone, methyl isobutyl ketone, methylene chloride, chloroform, dimethylformamide, dimethyl sulfoxide): soluble
solubility in water ([34]; water): sparingly soluble or insoluble

Source: patent US4988677A, “Macrolide antibiotic and its use as a medicinal agent” (Hoechst Aktiengesellschaft, priority 1986, dated 1991)
